Experiments:
Assay type in all cases: biochemical
Aurora-A(h) = target: T1, Aurora-A(h) (Homo sapiens, UniProt O14965); assay: Aurora-A kinase inhibition assay (KinaseProfiler / Kinase Hotspot); details: compound at 1 μM
T1 construct: purchased Millipore (KinaseProfiler service); also Reaction Biology Corp. (Kinase Hotspot)
T1 sequence (O14965 1-403): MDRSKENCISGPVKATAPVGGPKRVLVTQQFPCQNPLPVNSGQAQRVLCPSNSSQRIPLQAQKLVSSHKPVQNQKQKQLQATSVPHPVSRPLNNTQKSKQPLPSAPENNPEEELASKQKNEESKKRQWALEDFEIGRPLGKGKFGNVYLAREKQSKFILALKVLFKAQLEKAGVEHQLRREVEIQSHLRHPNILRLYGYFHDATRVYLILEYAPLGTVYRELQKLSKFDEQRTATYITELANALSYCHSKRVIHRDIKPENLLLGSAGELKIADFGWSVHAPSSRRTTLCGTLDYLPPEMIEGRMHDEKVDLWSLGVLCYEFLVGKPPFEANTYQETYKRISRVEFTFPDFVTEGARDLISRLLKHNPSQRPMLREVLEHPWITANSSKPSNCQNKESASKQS
Procedure: (§1) This example illustrated c-Src kinase, Aurora-A kinase, Flt3 kinase, Ret kinase and TrkA Kinase Assays of selected Compounds from this invention (referred to Daniele Fancelli et al, J. Med. Chem., 2006, 49 (24), pp 7247-7251). The KinaseProfiler™ Service Assay Protocols (Millipore) were used to test the kinase inhibiting activity of novel compounds from this invention. To do this, the buffer composition was as: 20 mM MOPS, 1 mM EDTA, 0.01% Brij-35, 5% Glycerol, 0.1% β-mercaptoethanol, 1 mg/mL BSA. Test compounds were initially dissolved in DMSO at the desired concentration, then serially diluted to the kinase assay buffer. In a final reaction volume of 25 μL, Aurora-A(h) (5-10 mU) is incubated with 8 mM MOPS pH 7.0, 0.2 mM EDTA, 200 μM LRRASLG (Kemptide), 10 mM MgAcetate and [γ^33P-ATP]. The reaction was initiated by the addition of the MgATP mix. After incubation for 40 minute at room temperature, the reaction was stopped by addition of 5 μL of a 3% phosphoric acid solution. 10 μL of the reaction was then spotted onto a P30 filtermat and washed three times for 5 minutes in 50 mM phosphoric acid and once in methanol prior to drying and scintillation counting. Wells containing substrate but no kinase and wells containing a phosphopeptide control were used to set 0% and 100% phosphorylation value, receptively.
(§2) Also Kinase Hotspot^SM kinase assay was used to test the compounds for IC50 or % inhibitions (Reaction Biology Corp.). Inhibitor IC50 values were determined by titration of compound at the optimal kinase concentration (Kinase EC50).

Ret kinase = target: T2, Ret kinase (Homo sapiens, UniProt P07949); assay: Ret kinase inhibition assay (KinaseProfiler / Kinase Hotspot); details: compound at 1 μM
T2 construct: purchased Millipore (KinaseProfiler service); also Reaction Biology Corp. (Kinase Hotspot)
Procedure: as §1, §2

c-Src kinase = target: T3, c-Src kinase (Homo sapiens, UniProt P12931); assay: c-Src kinase inhibition assay (KinaseProfiler / Kinase Hotspot); details: compound at 1 μM; read-out: % Inhibition @1 μM cSrc
T3 construct: purchased Millipore (KinaseProfiler service); also Reaction Biology Corp. (Kinase Hotspot)
Procedure: as §1, §2

TrkA Kinase = target: T4, TrkA Kinase (Homo sapiens, UniProt P04629); assay: TrkA kinase inhibition assay (KinaseProfiler / Kinase Hotspot); details: compound at 1 μM
T4 construct: purchased Millipore (KinaseProfiler service); also Reaction Biology Corp. (Kinase Hotspot)
Procedure: as §1, §2

Flt3 kinase = target: T5, Flt3 kinase (Homo sapiens, UniProt P36888); assay: Flt3 kinase inhibition assay (KinaseProfiler / Kinase Hotspot); details: compound at 1 μM
T5 construct: purchased Millipore (KinaseProfiler service); also Reaction Biology Corp. (Kinase Hotspot)
T5 sequence (P36888 27-993): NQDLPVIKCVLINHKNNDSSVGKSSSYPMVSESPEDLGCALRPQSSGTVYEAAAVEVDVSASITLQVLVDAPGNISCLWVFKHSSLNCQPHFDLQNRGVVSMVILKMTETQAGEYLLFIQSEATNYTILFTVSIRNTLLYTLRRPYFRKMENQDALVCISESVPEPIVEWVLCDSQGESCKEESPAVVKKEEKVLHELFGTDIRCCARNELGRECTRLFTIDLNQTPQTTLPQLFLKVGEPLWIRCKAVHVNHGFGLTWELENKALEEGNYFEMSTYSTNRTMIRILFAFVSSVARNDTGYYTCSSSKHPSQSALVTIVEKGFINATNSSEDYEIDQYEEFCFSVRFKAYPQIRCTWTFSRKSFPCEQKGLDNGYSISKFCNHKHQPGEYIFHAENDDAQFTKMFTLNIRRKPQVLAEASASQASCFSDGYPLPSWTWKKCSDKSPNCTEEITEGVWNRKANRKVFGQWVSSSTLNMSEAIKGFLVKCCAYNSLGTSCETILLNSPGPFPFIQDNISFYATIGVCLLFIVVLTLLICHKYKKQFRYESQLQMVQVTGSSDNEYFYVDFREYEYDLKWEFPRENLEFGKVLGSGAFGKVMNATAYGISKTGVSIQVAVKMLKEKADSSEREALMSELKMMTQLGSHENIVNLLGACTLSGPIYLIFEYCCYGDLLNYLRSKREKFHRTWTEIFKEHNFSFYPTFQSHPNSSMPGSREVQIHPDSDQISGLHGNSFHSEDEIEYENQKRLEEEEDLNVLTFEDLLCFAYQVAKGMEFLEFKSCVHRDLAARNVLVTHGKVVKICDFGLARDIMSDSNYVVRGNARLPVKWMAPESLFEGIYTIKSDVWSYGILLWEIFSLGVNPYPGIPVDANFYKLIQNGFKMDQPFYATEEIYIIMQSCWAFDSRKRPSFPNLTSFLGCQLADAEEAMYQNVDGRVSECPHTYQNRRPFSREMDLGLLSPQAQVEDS
Procedure: as §1, §2

T2 sequence (P07949 29-1114): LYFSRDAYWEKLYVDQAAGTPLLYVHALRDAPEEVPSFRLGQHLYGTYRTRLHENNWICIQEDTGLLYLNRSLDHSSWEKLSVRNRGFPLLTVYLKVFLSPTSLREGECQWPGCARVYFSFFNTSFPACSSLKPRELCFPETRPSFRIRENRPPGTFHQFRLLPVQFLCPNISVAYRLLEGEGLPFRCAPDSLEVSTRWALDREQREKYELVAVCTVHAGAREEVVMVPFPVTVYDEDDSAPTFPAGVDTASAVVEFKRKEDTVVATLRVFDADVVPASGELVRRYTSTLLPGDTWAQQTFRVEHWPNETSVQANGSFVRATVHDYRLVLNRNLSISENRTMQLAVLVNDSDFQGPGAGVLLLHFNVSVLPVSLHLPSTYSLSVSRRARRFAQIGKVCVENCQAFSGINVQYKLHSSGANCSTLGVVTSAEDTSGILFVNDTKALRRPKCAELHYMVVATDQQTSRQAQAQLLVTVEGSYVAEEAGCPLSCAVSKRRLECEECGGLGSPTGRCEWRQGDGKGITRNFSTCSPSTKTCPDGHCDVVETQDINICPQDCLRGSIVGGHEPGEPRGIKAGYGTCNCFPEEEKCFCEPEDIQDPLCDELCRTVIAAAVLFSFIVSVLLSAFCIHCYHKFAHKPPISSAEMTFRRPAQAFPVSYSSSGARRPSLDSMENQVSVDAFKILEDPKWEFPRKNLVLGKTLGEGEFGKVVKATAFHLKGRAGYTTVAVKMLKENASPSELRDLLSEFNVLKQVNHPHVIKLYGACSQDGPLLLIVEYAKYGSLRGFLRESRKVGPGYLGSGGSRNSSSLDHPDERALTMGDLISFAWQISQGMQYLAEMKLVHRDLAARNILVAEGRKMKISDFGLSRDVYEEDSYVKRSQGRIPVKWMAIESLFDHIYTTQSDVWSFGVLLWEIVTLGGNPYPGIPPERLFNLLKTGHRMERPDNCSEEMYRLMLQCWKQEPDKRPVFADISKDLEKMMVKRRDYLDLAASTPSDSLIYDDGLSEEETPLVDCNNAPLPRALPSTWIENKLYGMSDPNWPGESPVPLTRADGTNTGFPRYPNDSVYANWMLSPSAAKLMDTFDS
T3 sequence (P12931 whole entry): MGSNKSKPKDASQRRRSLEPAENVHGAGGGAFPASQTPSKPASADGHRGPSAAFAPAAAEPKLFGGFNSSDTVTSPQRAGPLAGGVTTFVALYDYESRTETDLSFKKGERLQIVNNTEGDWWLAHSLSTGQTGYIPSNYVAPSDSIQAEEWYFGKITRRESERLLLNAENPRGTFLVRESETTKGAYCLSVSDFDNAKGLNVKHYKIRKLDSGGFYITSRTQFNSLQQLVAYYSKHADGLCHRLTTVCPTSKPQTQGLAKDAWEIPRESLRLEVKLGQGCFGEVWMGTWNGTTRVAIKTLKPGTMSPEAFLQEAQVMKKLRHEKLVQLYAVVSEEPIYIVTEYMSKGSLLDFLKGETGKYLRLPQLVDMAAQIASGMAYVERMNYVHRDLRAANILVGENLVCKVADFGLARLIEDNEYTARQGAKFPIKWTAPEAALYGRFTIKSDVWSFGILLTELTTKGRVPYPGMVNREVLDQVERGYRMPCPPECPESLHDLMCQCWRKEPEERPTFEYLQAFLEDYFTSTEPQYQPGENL
T4 sequence (P04629 33-796): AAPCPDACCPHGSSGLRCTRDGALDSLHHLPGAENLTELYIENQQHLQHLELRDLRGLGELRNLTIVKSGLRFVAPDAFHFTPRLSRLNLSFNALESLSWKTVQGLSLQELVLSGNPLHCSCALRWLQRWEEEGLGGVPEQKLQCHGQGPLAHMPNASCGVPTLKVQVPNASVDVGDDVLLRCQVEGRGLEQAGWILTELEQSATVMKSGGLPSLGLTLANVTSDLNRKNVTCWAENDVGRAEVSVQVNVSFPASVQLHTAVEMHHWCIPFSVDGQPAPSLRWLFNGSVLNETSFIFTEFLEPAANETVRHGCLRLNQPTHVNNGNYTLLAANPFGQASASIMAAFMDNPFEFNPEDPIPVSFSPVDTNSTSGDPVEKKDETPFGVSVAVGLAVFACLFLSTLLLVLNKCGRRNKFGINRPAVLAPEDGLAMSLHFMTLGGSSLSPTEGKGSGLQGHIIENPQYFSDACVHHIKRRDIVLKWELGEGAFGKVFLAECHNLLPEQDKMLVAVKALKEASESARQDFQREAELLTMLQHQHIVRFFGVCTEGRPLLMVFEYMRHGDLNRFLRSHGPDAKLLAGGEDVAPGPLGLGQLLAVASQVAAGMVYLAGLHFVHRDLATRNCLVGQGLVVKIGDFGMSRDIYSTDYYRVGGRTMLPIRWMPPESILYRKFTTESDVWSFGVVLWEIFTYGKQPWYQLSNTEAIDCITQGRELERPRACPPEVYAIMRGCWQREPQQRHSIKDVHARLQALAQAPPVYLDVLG

`CC(C)c1cnc(Nc2nc(NC(C)c3ccc(F)cc3)nc(N3CCN(C)CC3)n2)s1` (stereo not drawn) [Example 2] was tested, and the inhibition at 1 µM (Aurora-A(h)) was < 50%, the inhibition at 1 µM (Ret kinase) was < 50% and the inhibition at 1 µM (c-Src kinase) was > 90%. For the same compound, the inhibition at 1 µM (TrkA Kinase) was > 90% and the inhibition at 1 µM (Flt3 kinase) was > 90%.
With `CC(C)c1cnc(Nc2nc(N[C@@H](C)c3ccc(F)cc3)nc(N3CCN(C)CC3)n2)s1` [Example 3] the inhibition at 1 µM (Aurora-A(h)) was 50 to 90%, the inhibition at 1 µM (Ret kinase) was 50 to 90% and the inhibition at 1 µM (c-Src kinase) was > 90%. For the same compound, the inhibition at 1 µM (TrkA Kinase) was > 90% and the inhibition at 1 µM (Flt3 kinase) was > 90%.
For `CC(C)c1cnc(Nc2nc(N[C@H](C)c3ccc(F)cc3)nc(N3CCN(C)CC3)n2)s1` [Example 4], the inhibition at 1 µM (Aurora-A(h)) was < 50%, the inhibition at 1 µM (Ret kinase) was < 50% and the inhibition at 1 µM (c-Src kinase) was 50 to 90%. The inhibition at 1 µM (TrkA Kinase) was 50 to 90% and the inhibition at 1 µM (Flt3 kinase) was > 90%.
`Cc1cnc(Nc2nc(NCc3ccc4c(c3)OCO4)nc(N3CCN(C)CC3)n2)s1` [Example 6] was tested, and the inhibition at 1 µM (Aurora-A(h)) was 50 to 90%, the inhibition at 1 µM (Ret kinase) was 50 to 90% and the inhibition at 1 µM (c-Src kinase) was 50 to 90%. The inhibition at 1 µM (TrkA Kinase) was > 90% and the inhibition at 1 µM (Flt3 kinase) was > 90%.
In the case of `Cc1cnc(Nc2nc(NCc3ccccc3)nc(N3CCN(C)CC3)n2)s1` [Example 7], the inhibition at 1 µM (Aurora-A(h)) is reported as 50 to 90%, the inhibition at 1 µM (Ret kinase) is reported as > 90% and the inhibition at 1 µM (c-Src kinase) is reported as 50 to 90%. The inhibition at 1 µM (TrkA Kinase) was > 90% and the inhibition at 1 µM (Flt3 kinase) was > 90%.
`Cc1cnc(Nc2nc(NCc3ccc(F)cc3)nc(N3CCN(C)CC3)n2)s1` [Example 8] gave an inhibition at 1 µM (Aurora-A(h)) of 50 to 90%, an inhibition at 1 µM (Ret kinase) of 50 to 90% and an inhibition at 1 µM (c-Src kinase) of 50 to 90%. For the same compound, the inhibition at 1 µM (TrkA Kinase) was > 90% and the inhibition at 1 µM (Flt3 kinase) was > 90%.
For `CN1CCN(c2nc(NCc3ccc(F)cc3)nc(Nc3cc(-c4ccco4)[nH]n3)n2)CC1` [Example 9], the inhibition at 1 µM (Aurora-A(h)) was < 50%, the inhibition at 1 µM (Ret kinase) was < 50% and the inhibition at 1 µM (c-Src kinase) was 50 to 90%. The inhibition at 1 µM (TrkA Kinase) was > 90% and the inhibition at 1 µM (Flt3 kinase) was > 90%.
`CN1CCN(c2nc(Nc3cc(-c4ccco4)[nH]n3)nc(N(C)Cc3ccc(F)cc3)n2)CC1` [Example 10] was tested, and the inhibition at 1 µM (Aurora-A(h)) was 50 to 90%, the inhibition at 1 µM (Ret kinase) was < 50% and the inhibition at 1 µM (c-Src kinase) was 50 to 90%. For the same compound, the inhibition at 1 µM (TrkA Kinase) was > 90% and the inhibition at 1 µM (Flt3 kinase) was > 90%.
With `CN1CCN(c2nc(Nc3cc(-c4ccco4)[nH]n3)nc(SCc3ccc(F)cc3)n2)CC1` [Example 11] the inhibition at 1 µM (Aurora-A(h)) was 50 to 90%, the inhibition at 1 µM (Ret kinase) was < 50% and the inhibition at 1 µM (c-Src kinase) was 50 to 90%. For the same compound, the inhibition at 1 µM (TrkA Kinase) was > 90% and the inhibition at 1 µM (Flt3 kinase) was > 90%.

Source: US9409903B2, “Benzyl substituted triazine derivatives and their therapeutical applications” (NantBioScience, Inc., priority 2009, dated 2016)
